Source: PubChem BioAssay AID720714 (Broad Institute, 2013)
Activity calls are given as the source filed them. The rule behind the calls is not given here.

Test system: not listed separately
Assay: HepG2 cell cytotoxicity, dose response, cytotoxicity control, plate reader, dry powder, set 3 (AID 720714)
Conditions: HepG2 cytotoxicity, plate reader; at 26 µM (top of the series)
In the case of CCCOc1ccccc1C1CC(=O)Nc2cc3c(cc21)OCO3 (stereo unspecified), the activity change, negative = cytotoxicity was 73.2% (inactive).
In the case of CN(C)S(=O)(=O)c1cccc(NC(=O)c2cccc(S(=O)(=O)N3CCc4ccccc43)c2)c1, the activity change, negative = cytotoxicity was 10.3% (inactive).
For COc1ccccc1N1CCN(c2ncc(C(=O)N3CCN(c4cccc(Cl)c4)CC3)c3ccccc23)CC1, the activity change, negative = cytotoxicity was 111% (inactive).
For O=C1CSc2ccc(C(=O)Nc3cccc(S(=O)(=O)Nc4ccc(Br)cc4)c3)cc2N1, the activity change, negative = cytotoxicity was -35.1% (inactive).
For CN(CC(=O)Nc1cccc(S(=O)(=O)N2CCOCC2)c1)CC(=O)Nc1ccc(Cl)c(C(F)(F)F)c1, the activity change, negative = cytotoxicity was -15.1% (inactive).
For CC(C)[C@H](NC(=O)OC(C)(C)C)c1nnc(S(=O)(=O)Cc2c(F)cccc2Cl)o1, the activity change, negative = cytotoxicity was -90.6% (inactive).
With COc1cc2ncnc(N[C@H](C)c3ccccc3)c2cc1OC the activity change, negative = cytotoxicity was 45.6% (inactive).
In the case of COc1ccc(NS(=O)(=O)c2ccc(C(=O)N3CCCCCC3)cc2)cc1, the activity change, negative = cytotoxicity was 41.5% (inactive).
For Cc1ccc2cc(CN(CC3CCCO3)C(=O)NC3CCCCC3)c(=O)[nH]c2c1C (stereo unspecified), the activity change, negative = cytotoxicity was 64.3% (inactive).
For Cc1cc(N2CCCC2=O)cc(C)c1S(=O)(=O)NCCOc1ccc(C(C)(C)C)cc1, the activity change, negative = cytotoxicity was 15.4% (inactive).
For CN(C(=O)COc1ccccc1C(=O)NCCOc1ccccc1)c1ccccc1, the activity change, negative = cytotoxicity was -26.1% (inactive).
For CC(=O)N1CCN(C(=O)CCc2cc(C(C)(C)C)c(O)c(C(C)(C)C)c2)CC1, the activity change, negative = cytotoxicity was 84.8% (inactive).
With Cc1cc2c(cc(C(=O)N3CCC(C(=O)NC4CCCC4)CC3)n2Cc2c(F)cccc2Cl)o1 the activity change, negative = cytotoxicity was 132% (inactive).
For Nc1nonc1C(=O)NCCNCc1cc(Br)ccc1OCc1ccc(F)cc1, the activity change, negative = cytotoxicity was -54.9% (inactive).
For CC(=O)Nc1cccc(NC(=O)CSc2ncc(-c3ccc(Cl)cc3)n2Cc2ccco2)c1, the activity change, negative = cytotoxicity was -23% (inactive).
In the case of Fc1ccc(-n2nnnc2-c2cnc(-c3cccs3)nc2C(F)(F)F)cc1, the activity change, negative = cytotoxicity was 23.6% (inactive).
In the case of O=c1c2ccccc2nc2n1C(CSCc1ccc(Cl)cc1Cl)CS2 (stereo unspecified), the activity change, negative = cytotoxicity was -17.2% (inactive).
With CCCc1nnc(NC(=O)c2nc(S(=O)(=O)Cc3ccc(C)cc3)ncc2Cl)s1 the activity change, negative = cytotoxicity was 26.2% (inactive).
With COc1ccc(Nc2nc(N3CCCCC3)c3ccccc3n2)cc1 the activity change, negative = cytotoxicity was -24.8% (inactive).
In the case of COc1ccc2c(c1)c(CC(=O)Nc1cc(C)ccc1C)c(C)n2C(=O)c1ccc(Cl)cc1, the activity change, negative = cytotoxicity was 8.4% (inactive).
For CCOC(=O)C1CCN(C(=O)c2ccc(OCC(=O)Nc3cccc(C(F)(F)F)c3)c(OC)c2)CC1, the activity change, negative = cytotoxicity was 11.7% (inactive).
For COc1ccc(NC(=O)c2nc(S(=O)(=O)Cc3cccc(C)c3)ncc2Cl)c(OC)c1, the activity change, negative = cytotoxicity was -19.7% (inactive).

Test system: HepG2 cytotoxicity, plate reader
Assay: as above
Conditions: not given
Work on O=C(c1nnsc1S(=O)c1ccc(Cl)cc1)N1CCOCC1 (stereo unspecified) yielded an AC50 of 14.5 µM.
CC(C)(C)NC(=O)CSc1nc2ccc(NC(=O)CSc3nnnn3Cc3ccccc3)cc2s1 gave an AC50 of 15.5 µM.
Molecule COc1cc(CN2CCc3ccccc3C2)ccc1O has an AC50 of 21.6 µM.
Molecule CN(C)c1nc(-c2ccccn2)nnc1-c1ccccc1 has an AC50 of 26.5 µM.
